Reference: patent US6653529B2, “Use of the maize X112 mutant ahas 2 gene and imidazolinone herbicides for selection of transgenic monocots, maize, rice and wheat plants resistant to the imidazolinone herbicides” (BASF Aktiengesellschaft, priority 2000, dated 2003)

How the values were obtained:
[1] = test system: Nortai (control) suspension cells; assay: In vitro growth of suspension cells on imazethapyr; format: cell-based, rice
Procedure: (§1) Cell suspension cultures were initiated from immature embryo-derived calli from either transgenic homozygous T2 plant 26-4-10 or Nortai plants in 3SN6d2 liquid medium and cultured two to three months prior to treatment with various concentrations of imazethapyr. The suspension cells were filtered through a 40μ nylon mesh, collected, and resuspended in 3SN6d2 liquid medium 0.2 ml of the suspended cells were loaded onto a Millipore filter, then placed on top of agarose solidified medium containing 0, 0.1, 0.25, 0.5, 1.0, 2.5, 5, 10, 25, or 50 μM imazethapyr (AC263,499). Three weeks later, all cultures were transferred once to fresh media with the same concentrations of imazethapyr and grown for another 5 weeks. Fresh weight was measured at the end of an 8-week culture period.

[2] = test system: transgenic suspension cells (T2 plant 26-4-10); assay: In vitro growth of suspension cells on imazethapyr; format: cell-based, rice; details: 8-week culture
Procedure: as §1

[3] = test system: T2 seeds of transgenic rice (T0 plants No. 26 and 29); assay: Seed germination test on imazethapyr; format: in vivo; details: 5 μM imazethapyr, 1 month treatment
Procedure: (§2) Three tests were performed to evaluate herbicide resistance of T2 progeny of transgenic rice. T2 progeny were first evaluated by a seed germination test followed by the greenhouse spray test and PCR analysis. As a prelude to testing the transgenic plants, an experiment was conducted to germinate untransformed rice seeds at imazethapyr concentrations ranging from 0.1 to 10 μM. […] The greenhouse spray test and PCR analysis were used to further confirm the results of the seed germination test with consistent identification of lines as resistant homozygous, susceptible homozygous or segregating hemizygous.
(§3) T2 seeds harvested from individual T1 plants were sterilized in 50% Clorox® bleach (2.3% sodium hyperchlorite) for 30 min followed by a thorough rinse with autoclaved water and pre-germinated in water for 2-3 days. Thirty to 35 pre-germinated seeds were transferred to the surface of folded paper towels placed perpendicular to the bottom of a Magenta box (Sigma, St. Louis, Mo.) to which 20 ml of H2O containing 5 μM imazethapyr (AC263,499, tech grade) was added. The seedlings were grown under 12 hr light at 26° C. for about a month. Seedlings that survived the imazethapyr treatment were scored as resistant and those that died as susceptible. 5.0 μM imazethapyr, equivalent to 5 times the threshold, was used for subsequent seed germination tests of the T2 generation. T2 seeds harvested from 16 T1 lines derived from T0 plant No. 26 and those from 15 T1 lines derived from T0 plant No. 29 were screened in the seed germination tests.

untransformed rice seeds = assay: Seed germination test on imazethapyr; format: in vivo
Procedure: as §2, §3

[4] = test system: immature embryos of Nortai plants (control); assay: In vitro callus induction and growth from immature embryos on imazethapyr; format: cell-based, rice
Procedure: (§4) Immature embryos (12-14 days after fertilization) were dissected from transgenic homozygous T2 plants, identified as 26-4 in FIG. 1, or seed-grown Nortai plants and placed in N6 basal medium (Chiu et al., Sci. Sin 18:659-68, 1975) supplemented with 2 mg/l 2,4-D, 3% sucrose, 0.6% agarose (3SN6d2) amended with 0, 0.01, 0.033, 0.1, 0.3, 1.0, 3.3, 10, 25, or 50 μM imazethapyr (AC263,499). Five embryos were placed on one 10×60 mm Petri dish with two to three plates for each concentration as replications. Three weeks later, in vitro cellular response was monitored by measuring the fresh weight of callus derived from individual embryos.

[5] = test system: immature embryos of transgenic homozygous T2 plants (26-4); assay: as above; format: cell-based, rice
Procedure: as §4

[6] = test system: transgenic rice Line 29 (maize XI12 ahas2 gene); assay: Greenhouse spray test of rice with PURSUIT imazethapyr (pre- and post-emergence); format: in vivo
[7] = test system: non-transformed Ciccio and Colosseo wheat plants; assay: Greenhouse spray test of wheat with RAPTOR imazamox; format: in vivo
Text: (§5) Sow seed to 3×5-cell flats at about 10 seed per cell. Grow the plants for about two weeks. On the day of spraying, water plants well and let excess water drip out. Spray plants on a belt-sprayer with the imidazolinone herbicides at desired rates. […] Resume regular water schedule three days after spraying. Closely observe the plants for the next two to four weeks. Symptoms of herbicide injury will be visible two weeks after spraying and susceptible plants will die four to six weeks later. We usually measure plant height and score the plant morphology with a 0 to 10 rating with 0 for dead plants and 10 for healthy plants with no or minimum injury.
(§6) We also analyzed T2 progeny plants from one of the best lines of 0407-1-10. T2 seeds were planted at 10 seeds per pot and two pots per line were sprayed at 0, 10, 20, 30, 40 and 50 g/ha RAPTOR® imazamox. Most plants did show an increase in resistance over non-transformed control (FIG. 6B).

[8] = test system: transgenic wheat plants (0407-1 and progeny); assay: as above; format: in vivo
Text: as §5
Wheat transformation efficiency, calculated as percent of immature embryos produced at least one imidazolinone-resistant transgenic plant ranged from 0.4 to 3.1% (Table 7). A fertile regenerant 0407-1 generated from early transformation experiment with Agrobacterium (LBA4404) containing pAC1558 was evaluated for resistance to RAPTOR® imazamox post emergence. Untransformed Ciccio and Closseo plants were very sensitive to RAPTOR® imazamox and dead at very low rate.
as §6

[9] = post-emergence, Rate 63 (g ai/ha)
[10] = post-emergence, Rate 125 (g ai/ha)
[11] = post-emergence, Rate 250 (g ai/ha)

CCc1cnc(C2=NC(C)(C(C)C)C(=O)N2)c(C(=O)O)c1 (stereo not drawn) [PURSUIT ®, imazethapyr]
concentrations that inhibit the growth of untransformed rice cells ([1]; in vitro): ≥ 0.1 µM
concentration at which growth of control cells was halted ([1]; lowest concentration used, 8-week culture): 0.1 μm
concentration up to which growth of transgenic suspension cells was normal [2]: up to 1.0 μm
concentration with no growth [2]: 5 μm
concentration with sharp decrease in growth [2]: 2 μm
fate of resistant transgenic plants [3]: survived and continued to grow
fate of control seeds (untransformed rice seeds; 5 μM imazethapyr, 1 month treatment): all control seeds died
concentration at which untransformed seeds were completely inhibited (untransformed rice seeds; germination at 0.1 to 10 μM): 1 µM
growth (reduced to) on imazethapyr ([4]; 0.03 μM): less than 50%
concentration at which callus induction was totally inhibited ([4]; 3 weeks): 0.1 µM
concentration up to which callus induction and growth were normal ([5]; transgenic embryos): up to 1 μM
concentration with no callus induction ([5]; transgenic embryos): 10 µM
reduction in growth ([5]; transgenic embryos, 3.3 μM): about 50%
increase in resistance to imazethapyr in vitro ([5]; transgenic vs untransformed, immature embryos (also suspension cells / cell lines)): 100 fold
No. panicles/plant Mean [6, 9]: 27.7
No. tillers/plant Mean [6, 9]: 34.5
Plant height Mean [6, 9]: 112.5 cm
Yield % 0× [6, 9]: 93 % 0×
Yield Mean [6, 9]: 199.0 g/5 plants
No. panicles/plant Mean [6, 10]: 24.5
No. tillers/plant Mean [6, 10]: 28.3
Plant height Mean [6, 10]: 114.1 cm
Yield % 0× [6, 10]: 113 % 0×
Yield Mean [6, 10]: 240.7 g/5 plants
No. panicles/plant Mean [6, 11]: 23.0
No. tillers/plant Mean [6, 11]: 24.1
Plant height Mean [6, 11]: 110.2 cm
Yield % 0× [6, 11]: 93 % 0×
Yield Mean [6, 11]: 197.3 g/5 plants
No. panicles/plant Mean ([6]; pre-emergence, 63 g/ha): 15.6
No. tillers/plant Mean ([6]; pre-emergence, 63 g/ha): 16.2
Plant height Mean ([6]; pre-emergence, 63 g/ha): 92.7 cm
Yield % 0× ([6]; pre-emergence, 63 g/ha): 93 % 0×
Yield Mean ([6]; pre-emergence, 63 g/ha): 156.3 g/5 plants
No. panicles/plant Mean ([6]; pre-emergence, 125 g/ha): 16.3
No. tillers/plant Mean ([6]; pre-emergence, 125 g/ha): 14.3
Plant height Mean ([6]; pre-emergence, 125 g/ha): 95.1 cm
Yield % 0× ([6]; pre-emergence, 125 g/ha): 99 % 0×
Yield Mean ([6]; pre-emergence, 125 g/ha): 166.7 g/5 plants
No. panicles/plant Mean ([6]; pre-emergence, 250 g/ha): 16.2
No. tillers/plant Mean ([6]; pre-emergence, 250 g/ha): 16.3
Plant height Mean ([6]; pre-emergence, 250 g/ha): 93.1 cm
Yield % 0× ([6]; pre-emergence, 250 g/ha): 92 % 0×
Yield Mean ([6]; pre-emergence, 250 g/ha): 155.3 g/5 plants

COCc1cnc(C2=NC(C)(C(C)C)C(=O)N2)c(C(=O)O)c1 (stereo not drawn) [RAPTOR ®, imazamox]
plant heights of Ciccio and Colosseo reduced, less than those of transformed plants ([7]; 10 g/ha): 50%
fate of non-transformed Ciccio ([7]; 50 g/ha): caused death
reduction of plant height of resistant transgenic plants ([8]; 20 g/ha, T2 progeny of 0407-1-10): about 25%
T1 transgenic plants dead, out of 288 ([8]; 50 g/ha): 218
T1 transgenic plants that survived, out of 288 ([8]; 50 g/ha): 70
stunting of resistant plants ([8]; 50 g/ha, T1): 33-70%
increase of tolerance in transgenic wheat plants ([8]; in vivo): 5 ×
